From ChEMBL document CHEMBL1131873, “Induction of erythroid differentiation of human K562 cells by 3-O-acyl-1,2-O-isopropylidene-D-glucofuranose derivatives” (Bioorg Med Chem Lett, 1999)
Blank lines part the entries; values can stand above or below the compound they belong to.

Key:
[1] = test system: K562; assay: Evaluated for erythroid induction of benzidine-positive K562 cells at concentration 3 mM; format: functional, Homo sapiens
[2] = test system: K562; assay: Inhibition of cell growth against human myeloid leukemia K562(S) cells; format: functional, cell-based
[3] = test system: K562; assay: Effect of compound on erythroid differentiation of K562 cells was determined after a period of 9 days at concentration 4 mM; format: functional, Homo sapiens
[4] = test system: K562; assay: Effect of compound on erythroid differentiation of K562 cells was determined after a period of 3 days at concentration 4 mM; format: functional, Homo sapiens
[5] = test system: K562; assay: Effect of compound on erythroid differentiation of K562 cells was determined after a period of 5 days at concentration 4 mM; format: functional, Homo sapiens
[6] = test system: K562; assay: Effect of compound on erythroid differentiation of K562 cells was determined after a period of 7 days at concentration 4 mM; format: functional, Homo sapiens
[7] = test system: K562; assay: Evaluated for erythroid induction of benzidine-positive K562 cells at concentration 2 mM after 9 day induction period; format: functional, Homo sapiens
[8] = test system: K562; assay: Compound (2 mM) was evaluated for maximum level of percentage of benzidine-positive (hemoglobin-containing) K562 cells in the presence of ara-C (25 nM); format: functional, Homo sapiens
[9] = test system: K562; assay: Compound was evaluated for erythroid induction of benzidine-positive K562 cells at concentration 4 mM; format: functional, Homo sapiens
[10] = test system: K562; assay: Compound (2 mM) was evaluated for maximum level of percentage of benzidine-positive (hemoglobin-containing) K562 cells in the presence of retinoic acid (5 µM)
[11] = test system: K562; assay: Compound was evaluated for erythroid induction of benzidine-positive K562 cells at concentration 5 mM; format: functional, Homo sapiens
[12] = test system: K562; assay: Maximum level of percentage of benzidine-positive (hemoglobin-containing) K562 cells reached with in 9 days at 3 mM concentration; format: functional, Homo sapiens
[13] = test system: K562; assay: Maximum level of percentage of benzidine-positive (hemoglobin-containing) K562 cells reached with in 9 days at 4 mM concentration; format: functional, Homo sapiens
[14] = test system: K562; assay: In vitro inhibition of cell growth against human myeloid leukemia K562(S) cells; format: functional, cell-based
[15] = test system: K562; assay: Compound was evaluated for erythroid induction of benzidine-positive K562 cells at concentration 1 mM after 9 day induction period; format: functional, Homo sapiens
[16] = test system: K562; assay: Compound (2 mM) was evaluated for maximum level of percentage of benzidine-positive (hemoglobin-containing) K562 cells in the presence of mithramycin (5 nM); format: functional, Homo sapiens
[17] = test system: K562; assay: Compound (2 mM) was evaluated for maximum level of percentage of benzidine-positive (hemoglobin-containing) K562 cells in the presence of retinoic acid (5 uM); format: functional, Homo sapiens
[18] = test system: K562; assay: The compound was evaluated for inhibition of cell growth against human myeloid leukemia K562(S) cells; format: functional, cell-based
[19] = test system: K562; assay: Effect of compound on erythroid differentiation of K562 cells was determined after a period of 9 days at concentration 20 nM; format: functional, Homo sapiens
[20] = test system: K562; assay: Effect of compound on erythroid differentiation of K562 cells was determined after a period of 3 days at concentration 20 nM; format: functional, Homo sapiens
[21] = test system: K562; assay: Effect of compound on erythroid differentiation of K562 cells was determined after a period of 5 days at concentration 20 nM; format: functional, Homo sapiens
[22] = test system: K562; assay: Effect of compound on erythroid differentiation of K562 cells was determined after a period of 7 days at concentration 20 nM; format: functional, Homo sapiens
[23] = test system: K562; assay: Compound was evaluated for erythroid induction of benzidine-positive K562 cells at concentration 5 mM after 9 day induction period; format: functional, Homo sapiens
[24] = test system: K562; assay: Compound was evaluated for erythroid induction of benzidine-positive K562 cells at concentration 4 mM after 9 day induction period; format: functional, Homo sapiens
[25] = test system: K562; assay: Compound was evaluated for erythroid induction of benzidine-positive K562 cells at concentration 3 mM after 9 day induction period; format: functional, Homo sapiens
[26] = test system: K562; assay: Effect of compound on erythroid differentiation of K562 cells was determined after a period of 9 days at concentration 500 nM; format: functional, Homo sapiens
[27] = test system: K562; assay: Effect of compound on erythroid differentiation of K562 cells was determined after a period of 3 days at concentration 500 nM; format: functional, Homo sapiens
[28] = test system: K562; assay: Effect of compound on erythroid differentiation of K562 cells was determined after a period of 5 days at concentration 500 nM; format: functional, Homo sapiens
[29] = test system: K562; assay: Effect of compound on erythroid differentiation of K562 cells was determined after a period of 7 days at concentration 500 nM; format: functional, Homo sapiens

IC50 [2]: 4.8 mM
SMILES: CC(C)C(=O)O
Erythroid induction [1]: 14% | Erythroid induction [3]: 8% | Erythroid induction [4]: 12% | Erythroid induction [5]: 14% | Erythroid induction [6]: 12%

IC50 [2]: 1 mM
SMILES: CC(C)CC(=O)OC1C(C(O)CO)OC2OC(C)(C)OC21 (stereo not drawn)
Erythroid induction [7]: 12%

IC50 [2]: 2.5 mM
SMILES: CC(C)C(=O)OC1C(C(O)CO)OC2OC(C)(C)OC21 (stereo not drawn)
Erythroid induction [1]: 43% | Erythroid induction [8]: 78% | Erythroid induction [3]: 50% | Erythroid induction [4]: 20% | Erythroid induction [9]: 54.2% | Erythroid induction [10]: 55.8% | Erythroid induction [11]: 59% | Erythroid induction [5]: 35% | Erythroid induction [6]: 56.8%

IC50 [2]: 2.4 mM
SMILES: CCCC(=O)O [BUTYRIC ACID]
Erythroid induction [1]: 35%

IC50 [14]: 2.8 mM
SMILES: CC1(C)OCC(C2OC3OC(C)(C)OC3C2O)O1 (stereo not drawn)
Erythroid induction [12]: 26% | Erythroid induction [13]: 18%

IC50 [2]: 3.8 mM
SMILES: CC(=O)OC1C(C(O)CO)OC2OC(C)(C)OC21 (stereo not drawn)
Erythroid induction [13]: 27%

IC50 [2]: 0.5 mM
SMILES: CC1(C)OC2OC(C(O)CO)C(OC(=O)CC(c3ccccc3)c3ccccc3)C2O1 (stereo not drawn)
Erythroid induction [15]: 14%

IC50 [2]: 1.2 mM
SMILES: CC(C)(C)CC(=O)OC1C(C(O)CO)OC2OC(C)(C)OC21 (stereo not drawn)
Erythroid induction [7]: 20%

IC50 [2]: 0.8 mM
SMILES: CCCC(=O)OC1C(C(O)CO)OC2OC(C)(C)OC21 (stereo not drawn)
Erythroid induction [7]: 25.4%

IC50 [2]: 1.5 mM
SMILES: CC1(C)OC2OC(C(O)CO)C(OC(=O)C(C)(C)C)C2O1 (stereo not drawn)
Erythroid induction [1]: 51.7% | Erythroid induction [8]: 90% | Erythroid induction [3]: 59% | Erythroid induction [4]: 22% | Erythroid induction [9]: 50.2% | Erythroid induction [5]: 25% | Erythroid induction [16]: 34% | Erythroid induction [6]: 50.7% | Erythroid induction [17]: 67%

IC50 [2]: 0.5 mM
SMILES: CC(CC(=O)OC1C(C(O)CO)OC2OC(C)(C)OC21)c1ccccc1 (stereo not drawn)
Erythroid induction [15]: 15%

IC50 [18]: 10 nM
SMILES: CO[C@H](C(=O)[C@@H](O)[C@@H](C)O)[C@@H]1Cc2cc3cc(O[C@H]4C[C@@H](O[C@@H]5C[C@@H](O)[C@H](O)[C@@H](C)O5)[C@H](O)[C@@H](C)O4)c(C)c(O)c3c(O)c2C(=O)[C@H]1O[C@H]1C[C@@H](O[C@@H]2C[C@@H](O)[C@@H](O[C@@H]3C[C@](C)(O)[C@H](O)[C@@H](C)O3)[C@@H](C)O2)[C@H](O)[C@@H](C)O1 [PLICAMYCIN]
Erythroid induction [1]: 81% | Erythroid induction [19]: 80% | Erythroid induction [20]: 15% | Erythroid induction [21]: 55% | Erythroid induction [22]: 75%

IC50 [2]: 2.5 mM
SMILES: CC1(C)OC2OC(C(O)CO)C(OC(=O)C3CCCC3)C2O1 (stereo not drawn)
Erythroid induction [23]: 8% | Erythroid induction [24]: 16.8% | Erythroid induction [25]: 7%

IC50 [2]: 2.4 mM
SMILES: CCC(=O)OC1C(C(O)CO)OC2OC(C)(C)OC21 (stereo not drawn)
Erythroid induction [7]: 21% | Erythroid induction [24]: 25% | Erythroid induction [25]: 19.6%

IC50 [2]: 2 mM
SMILES: CCCCC(=O)OC1C(C(O)CO)OC2OC(C)(C)OC21 (stereo not drawn)
Erythroid induction [7]: 24% | Erythroid induction [24]: 25% | Erythroid induction [25]: 28%

IC50 [2]: 0.0005 mM
SMILES: Nc1ccn([C@@H]2O[C@H](CO)[C@@H](O)[C@@H]2O)c(=O)n1 [CYTARABINE]
Erythroid induction [1]: 95% | Erythroid induction [26]: 93.2% | Erythroid induction [27]: 45% | Erythroid induction [28]: 61.5% | Erythroid induction [29]: 84.5%

IC50 [2]: 1.2 mM
SMILES: CCCCCC(=O)OC1C(C(O)CO)OC2OC(C)(C)OC21 (stereo not drawn)
Erythroid induction [7]: 21% | Erythroid induction [15]: 10.3%

IC50 [2]: 4.5 mM
SMILES: CC(C)(C)C(=O)O [PIVALATE]
Erythroid induction [1]: 12% | Erythroid induction [3]: 6% | Erythroid induction [4]: 4% | Erythroid induction [5]: 9% | Erythroid induction [6]: 11%

IC50 [2]: 4 mM
SMILES: CCC(=O)O [PROPIONIC ACID]
Erythroid induction [24]: 10%
